Each compound was assayed against T1, Recombinant human BRD4 containing dual bromodomains (BRD4-BD12 (1-477)) (Homo sapiens, UniProt O60885) (assay: BRD4 Alphascreen binding assay).
T1 construct: Recombinant human BRD4 containing dual bromodomains (BRD4-BD12 (1-477)); made in house; host or cells: E. coli BL21-CodonPlus (DE3), modified pET vector
In short: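 His-tagged human BRD4 tandem bromodomains (1-477, E. coli) incubated 1 h at room temperature with biotinylated tetra-acetylated H4 (1-21) peptide and compound in HEPES pH 7.5 buffer with 2 mM DTT. AlphaScreen signal read 30 min after adding beads (7.5 μg/ml); IC50 from four-parameter fit after normalization to controls.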

`CCOc1cc(C(=O)O)nc(OCC)c1-c1cn(C2CCN(C(=O)OC(C)(C)C)CC2)c2ncc(-c3c(C)noc3C)cc12` [P-0433, 5-(1-(1-(tert-butoxycarbonyl)piperidin-4-yl)-5-(3,5-dimethylisoxazol-4-yl)-1H-pyrrolo[2,3-b]pyridin-3-yl)-4,6-diethoxypicolinic acid] and `CCOc1cc(C(=O)O)nc(OCC)c1-c1cn(C2CCN(S(C)(=O)=O)CC2)c2ncc(-c3c(C)noc3C)cc12` [P-0435, 5-(5-(3,5-dimethylisoxazol-4-yl)-1-(1-(methylsulfonyl)piperidin-4-yl)-1H-pyrrolo[2,3-b]pyridin-3-yl)-4,6-diethoxypicolinic acid] fall in the same range of IC50: 8 to 1000 µM for the first, 8 to 1000 µM for the second.

Compared with `Cc1noc(C)c1-c1cnc2c(c1)c(C1CCC(C(=O)O)CC1)cn2-c1ccc(F)cc1F` (centres unmarked) [P-0434, 4-(1-(2,4-difluorophenyl)-5-(3,5-dimethylisoxazol-4-yl)-1H-pyrrolo[2,3-b]pyridin-3-yl)cyclohexane-1-carboxylic acid], `Cc1noc(C)c1-c1cnc2c(c1)c(-c1ccc(CC(=O)O)cc1)cn2-c1ccc(F)cc1F` [P-0438, 2-(4-(1-(2,4-difluorophenyl)-5-(3,5-dimethylisoxazol-4-yl)-1H-pyrrolo[2,3-b]pyridin-3-yl)phenyl)acetic acid] is higher in IC50: 1 to 8 µM for the first, 8 to 1000 µM for the second.

First: CCOc1cc(C(=O)O)nc(OCC)c1-c1cn(-c2cccnc2)c2ncc(-c3c(C)noc3C)cc12 [P-0436, 5-(5-(3,5-dimethylisoxazol-4-yl)-1-(pyridin-3-yl)-1H-pyrrolo[2,3-b]pyridin-3-yl)-4,6-diethoxypicolinic acid]
Second: Cc1noc(C)c1-c1cnc2c(c1)c(-c1c(Cl)cc(C(=O)O)cc1OC(F)(F)F)cn2-c1cccnn1 [P-0439, 3-chloro-4-(5-(3,5-dimethylisoxazol-4-yl)-1-(pyridazin-3-yl)-1H-pyrrolo[2,3-b]pyridin-3-yl)-5-(trifluoromethoxy)benzoic acid]
The IC50 of the first is higher: 1 to 8 µM for the first, 0.0001 to 1 µM for the second. The second is the more potent here.

`Cc1noc(C)c1-c1cnc2c(c1)c(-c1ccc(CC(=O)O)cc1F)cn2-c1ccc(F)cc1F` [P-0437] and `COc1ccc(CC(=O)O)cc1-c1cn(-c2ccc(F)cc2F)c2ncc(-c3c(C)noc3C)cc12` [P-0443, 2-(3-(1-(2,4-difluorophenyl)-5-(3,5-dimethylisoxazol-4-yl)-1H-pyrrolo[2,3-b]pyridin-3-yl)-4-methoxyphenyl)acetic acid] fall in the same range of IC50: 1 to 8 µM for the first, 1 to 8 µM for the second.

First: COC(=O)c1cc(Cl)c(-c2cn(-c3ccc(C4CC4)nc3)c3ncc(-c4c(C)noc4C)cc23)c(OC(F)(F)F)c1 [P-0440, methyl 3-chloro-4-(1-(6-cyclopropylpyridin-3-yl)-5-(3,5-dimethylisoxazol-4-yl)-1H-pyrrolo[2,3-b]pyridin-3-yl)-5-(trifluoromethoxy)benzoate]
Second: Cc1noc(C)c1-c1cnc2c(c1)c(-c1c(Cl)cc(C(=O)O)cc1OC(F)(F)F)cn2-c1ccc(C2CC2)nc1 [P-0441, 3-chloro-4-(1-(6-cyclopropylpyridin-3-yl)-5-(3,5-dimethylisoxazol-4-yl)-1H-pyrrolo[2,3-b]pyridin-3-yl)-5-(trifluoromethoxy)benzoic acid]
The IC50 of the first is higher: 8 to 1000 µM for the first, 0.0001 to 1 µM for the second.

`CCOc1cc(C(=O)O)c(F)cc1-c1cn(C2CCN(C(=O)OC(C)(C)C)CC2)c2ncc(-c3c(C)noc3C)cc12` [P-0442, 4-(1-(1-(tert-butoxycarbonyl)piperidin-4-yl)-5-(3,5-dimethylisoxazol-4-yl)-1H-pyrrolo[2,3-b]pyridin-3-yl)-5-ethoxy-2-fluorobenzoic acid] and `CCOc1cc(C(=O)O)c(F)cc1-c1cn(C2CCN(C(=O)C(C)(C)C)CC2)c2ncc(-c3c(C)noc3C)cc12` [P-0445, 4-(5-(3,5-dimethylisoxazol-4-yl)-1-(1-pivaloylpiperidin-4-yl)-1H-pyrrolo[2,3-b]pyridin-3-yl)-5-ethoxy-2-fluorobenzoic acid] fall in the same range of IC50: 8 to 1000 µM for the first, 8 to 1000 µM for the second.

`Cc1noc(C)c1-c1cnc2c(c1)c(-c1cc(F)c(C(=O)O)cc1OC(F)(F)F)cn2-c1ccc(C2CC2)nc1` [P-0444, 4-(1-(6-cyclopropylpyridin-3-yl)-5-(3,5-dimethylisoxazol-4-yl)-1H-pyrrolo[2,3-b]pyridin-3-yl)-2-fluoro-5-(trifluoromethoxy)benzoic acid] and `CCc1onc(C)c1-c1cnc2c(c1)c(-c1c(Cl)cc(C(=O)O)cc1OC(F)(F)F)cn2-c1ccc(C2CC2)nc1` [P-0448, 3-chloro-4-(1-(6-cyclopropylpyridin-3-yl)-5-(5-ethyl-3-methylisoxazol-4-yl)-1H-pyrrolo[2,3-b]pyridin-3-yl)-5-(trifluoromethoxy)benzoic acid] fall in the same range of IC50: 1 to 8 µM for the first, 1 to 8 µM for the second.

`CCOc1cc(C(=O)O)c(F)cc1-c1cn(C2CCN(CCC#N)CC2)c2ncc(-c3c(C)noc3C)cc12` [P-0446, 4-(1-(1-(2-cyanoethyl)piperidin-4-yl)-5-(3,5-dimethylisoxazol-4-yl)-1H-pyrrolo[2,3-b]pyridin-3-yl)-5-ethoxy-2-fluorobenzoic acid] and `CCOc1cc(C(=O)O)c(F)cc1-c1cn(C2CCN(C(=O)CO)CC2)c2ncc(-c3c(C)noc3C)cc12` [P-0447, 4-(5-(3,5-dimethylisoxazol-4-yl)-1-(1-(2-hydroxyacetyl)piperidin-4-yl)-1H-pyrrolo[2,3-b]pyridin-3-yl)-5-ethoxy-2-fluorobenzoic acid] fall in the same range of IC50: 8 to 1000 µM for the first, 8 to 1000 µM for the second.

`Cc1nnn(C)c1-c1cnc2c(c1)c(-c1cccc(C(=O)O)c1)cn2[C@@H](C)c1ccccn1` [P-0449, (S)-3-(5-(1,4-dimethyl-1H-1,2,3-triazol-5-yl)-1-(1-(pyridin-2-yl)ethyl)-1H-pyrrolo[2,3-b]pyridin-3-yl)benzoic acid] gave an IC50 of 1 to 8 µM.
